Each block holds one compound with its values, some of them ahead of it.
Columns and labels:
hemorrhaged rats = settings: Gill, Pelit et al. 2011; cited from earlier work
α2 adrenergic receptors = assay: Centhaquin resuscitation with and without α2 adrenergic antagonists: arterial blood hematocrit, pH, gases, electrolytes, lactate; type: in vivo, rat; settings: hemorrhaged rats
rats in endotoxic shock = assay: Endotoxic shock induced by E. coli LPS in rats; type: in vivo; settings: 0.05 mg/kg after LPS 30 mg/kg iv; one rat, sacrificed at the end of experiment; vehicle rat died after 270 min
Method: FIG. 14 illustrates the efficiency of a low dose of centhaquin citrate in the treatment of septic shock. In the tests summarized in FIG. 14, anaesthetized rats were immobilized on a surgical board and an incision was made above the femoral vein and artery. The vessels were cleaned and isolated. Heart rate and mean arterial pressure were measured by cannulating left femoral artery with pressure transducer SPR-320 (Millar Instruments), connected to a ML221 bridge amplifier (AD Instruments) through AEC-10C connector and the signals were acquired (1000 S^−) using PowerLab 16/30. Left femoral veins were secured for drug administration using PE 50 tubing (Clay Adams, Parsipanny, N.J.). Right femoral artery was cannulated for blood drawings using PE 50 tubing (Clay Adams, Parsipanny, N.J.). After completion of the surgery, animals were maintained in a steady state for 30 minutes before administration of Lipopolysaccharide (LPS). Endotoxic shock was induced by intravenous injection of E. coli LPS O111:B4 (Sigma Chemical, St. Louis, Mo.) dissolved to a concentration of 10 mg in 0.1 ml of normal saline and a dose of 30 mg/kg was administered. Resuscitation (R) was performed either with vehicle (saline) or with centhaquin citrate (0.05 mg/kg). The rat treated with vehicle has lower blood pressure compared to the rat treated with centhaquin. […]

[1] = system: urethane anesthetized rats; assay: Cardiovascular effects in urethane anesthetized rats, centhaquin vs centhaquin citrate; type: in vivo, rat; settings: 0.05, 0.15, 0.45 mg/kg; 60 minute period; mean blood pressure, pulse pressure, heart rate, cardiac output, stroke volume, stroke work
Method: In these plots, centhaquin is tested as the free base in amounts of 0.05, 0.15, and 0.45 mg/kg. Similarly, centhaquin citrate dihydrate is tested in amounts of 0.05, 0.15, and 0.45 mg/kg. These amounts of centhaquin citrate are equivalent to 0.030, 0.089, and 0.267 mg/kg of centhaquin as the free base.

Structure (SMILES): N=C(N)NCCCCN [Agmatine]
resuscitative effect (hemorrhaged rats): effective resuscitation agent
resuscitative effect in presence of yohimbine (hemorrhaged rats): completely blocked

Structure (SMILES): CCC1(c2cnc[nH]2)Cc2ccccc2C1 [atipamezole, reference compound]
effect of the α2 adrenergic antagonist on the resuscitative effect of centhaquin (α2 adrenergic receptors): completely blocked

Structure (SMILES): Cc1cccc(N2CCN(CCc3ccc4ccccc4n3)CC2)c1.O=C(O)CC(O)(CC(=O)O)C(=O)O [centhaquin citrate]
survival (rats in endotoxic shock): 360 min
cardiovascular effects compared to centhaquin free base at same mg/kg dose [1]: substantially outperformed centhaquin free base

effect of the α2 adrenergic antagonist on the resuscitative effect of centhaquin (α2 adrenergic receptors): completely blocked
Structure (SMILES): COC(=O)[C@@H]1[C@H]2C[C@H]3c4[nH]c5ccccc5c4CCN3C[C@@H]2CC[C@@H]1O [yohimbine, reference compound]

From patent US20150250782A1, “Methods and Compositions for Hypotensive Resuscitation” (Pharmazz, Inc., priority 2012, published 2015)
